Assays:
Assay type in all cases: in vivo
Oryza sativa = assay: Paddy herbicidal activity test, phytotoxicity to transplanted rice; conditions: rice plants in the 2.0 leaf stage transplanted, 30 days, 30° C.
Method: (§1) Rice paddy soil was filled into a 1/10000 are pot followed by the addition of suitable amounts of water and chemical fertilizer, kneading, seeding with Echinochloa crus-galli, Monochoria vaginalis and Scirpus juncoides and maintaining in an irrigated state at a water depth of 3 cm.
(§2) Wettable powders of Target Compound (I) shown in Table 1 prepared in compliance with the preparation examples were diluted with a suitable amount of water, rice plants in the 2.0 leaf stage were transplanted during 3.5 leaf stage of Echinochloa crus-galli, and treated by dropping in chemical in the prescribed amount per 10 are using a pipette.
(§3) After treating for 30 days in a glass greenhouse at an average atmospheric temperature of 30° C., the herbicidal efficacy thereof was investigated.
(§4) Evaluation of herbicidal efficacy was carried out by comparing growth inhibition rate (%) with an untreated group, while evaluation of phytotoxicity was carried out by comparing growth inhibition rate (%) with the state of a complete eradication group, and were evaluated at 11 levels indicated below.

Amaranthus retroflexus [1] = assay: Weed foliar treatment test (Test Example 3); conditions: foliar spray at 1.0 to 2.0 leaf stage of Digitaria ciliaris, 3 weeks, 25° C.
Method: (§5) Soil was filled into a 1/6000 are pot followed by seeding with Digitaria ciliaris, Chenopodium album and Amaranthus retroflexus, covering with soil, and cultivating in a glass greenhouse at an average atmospheric temperature of 25° C.
(§6) Wettable powders of Target Compound (I) shown in Table 1 prepared in compliance with the preparation examples were diluted with water to the prescribed amount of chemical and uniformly sprayed onto the weeds using 150 liters of sprayed water per 10 are when Digitaria ciliaris had grown to the 1.0 to 2.0 leaf stage.
(§7) After treating for 3 weeks in a glass greenhouse at an average atmospheric temperature of 25° C., the herbicidal efficacy thereof was investigated.
(§8) Evaluation of herbicidal efficacy was carried out in the same manner as the above-mentioned Test Example 1.

Chenopodium album [2] = assay: Weed foliar treatment test (Test Example 3); conditions: foliar spray at 1.0 to 2.0 leaf stage of Digitaria ciliaris, 3 weeks, 25° C.; for herbicidal efficacy, Chenopodium alubum: 5 g a.i./10a; for herbicidal efficacy, Chenopodium album: 10 g a.i./10a
Method: as §5, §6, §7, §8

Digitaria ciliaris [3] = assay: Weed foliar treatment test (Test Example 3); conditions: foliar spray at 1.0 to 2.0 leaf stage of Digitaria ciliaris, 3 weeks, 25° C.
Method: as §5, §6, §7, §8

Galinsoga parviflora = assay: Weed foliar treatment test (Test Example 4, higher leaf stage); conditions: 10 g a.i./10a; foliar spray at 4.0 to 5.0 leaf stage of Digitaria ciliaris; 20 days, 25° C.
Method: (§9) Field soil was filled into a 1/4500 are pot followed by seeding with Digitaria ciliaris and Galinsoga parviflora, covering with soil and cultivating in a glass greenhouse at an average atmospheric temperature of 25° C.
as §6, with “100” for “150”, “4.0” for “1.0”, “5.0” for “2.0”, “stage (plant height: 10 cm to 15 cm).” for “stage.”
(§10) After treating for 20 days in a glass greenhouse at an average atmospheric temperature of 25° C., the herbicidal efficacy thereof was investigated.
as §8

Digitaria ciliaris [4] = assay: as above; conditions: 10 g a.i./10a; foliar spray at 4.0 to 5.0 leaf stage of Digitaria ciliaris (plant height 10 cm to 15 cm); 20 days, 25° C.
Method: as §9
as §6, with “100” for “150”, “4.0” for “1.0”, “5.0” for “2.0”, “stage (plant height: 10 cm to 15 cm).” for “stage.”
as §10, §8

Scirpus juncoides = assay: Paddy herbicidal activity test; conditions: irrigated paddy pot, 30 days, 30° C.
Method: as §1, §2, §3, §4

Echinochloa crus-galli = assay: Paddy herbicidal activity test; conditions: irrigated paddy pot, treated at 3.5 leaf stage of Echinochloa crus-galli, 30 days, 30° C.
Method: as §1, §2, §3, §4

Monochoria vaginalis = assay: Paddy herbicidal activity test; conditions: irrigated paddy pot, 30 days, 30° C.
Method: as §1, §2, §3, §4

Amaranthus retroflexus [5] = assay: Farming soil treatment test; conditions: soil surface spray prior to weed growth, 30 days, 30° C.
Method: (§11) Field soil was filled into a 1/6000 are pot followed by seeding with Digitaria ciliaris, Chenopodium album and Amaranthus retroflexus and covering with soil.
(§12) Wettable powders of compounds of formula (I) shown in Table 1 prepared in compliance with the preparation examples were diluted with water to the prescribed amount of chemical and uniformly sprayed onto each soil surface layer using 100 liters of sprayed water per 10 are prior to weed growth following seeding.
as §3
(§13) Evaluation of herbicidal efficacy was carried out in the same manner as the above-mentioned Test Example 1,

Chenopodium album [6] = assay: Farming soil treatment test; conditions: soil surface spray prior to weed growth, 30 days, 30° C.
Method: as §11, §12, §3, §13

Digitaria ciliaris [7] = assay: Farming soil treatment test; conditions: soil surface spray prior to weed growth, 30 days, 30° C.
Method: as §11, §12, §3, §13

SMILES	phytotoxicity, Oryza sativa (Oryza sativa; 1 g a.i./10a)	phytotoxicity, Oryza sativa (Oryza sativa; 5 g a.i./10a)	herbicidal efficacy, Amaranthus retroflexus (Amaranthus retroflexus [1]; 5 g a.i./10a)	herbicidal efficacy, Amaranthus retroflexus (Amaranthus retroflexus [1]; 10 g a.i./10a)	herbicidal efficacy, Chenopodium alubum (Chenopodium album [2])	herbicidal efficacy, Chenopodium album (Chenopodium album [2])	herbicidal efficacy, Digitaria ciliaris (Digitaria ciliaris [3]; 5 g a.i./10a)	herbicidal efficacy, Digitaria ciliaris (Digitaria ciliaris [3]; 10 g a.i./10a)	herbicidal efficacy, Galinsoga parviflora (Galinsoga parviflora)	herbicidal efficacy, Digitaria ciliaris (Digitaria ciliaris [4])	herbicidal efficacy, Scirpus juncoides (Scirpus juncoides; 1 g a.i./10a)	herbicidal efficacy, Scirpus juncoides (Scirpus juncoides; 5 g a.i./10a)	herbicidal efficacy, Echinochloa crus-galli (Echinochloa crus-galli; 1 g a.i./10a)	herbicidal efficacy, Echinochloa crus-galli (Echinochloa crus-galli; 5 g a.i./10a)	herbicidal efficacy, Monochoria vaginalis (Monochoria vaginalis; 1 g a.i./10a)	herbicidal efficacy, Monochoria vaginalis (Monochoria vaginalis; 5 g a.i./10a)	herbicidal efficacy, Amaranthus retroflexus (Amaranthus retroflexus [5]; 5 g a.i./10a)	herbicidal efficacy, Amaranthus retroflexus (Amaranthus retroflexus [5]; 10 g a.i./10a)	herbicidal efficacy, Chenopodium album (Chenopodium album [6]; 5 g a.i./10a)	herbicidal efficacy, Chenopodium album (Chenopodium album [6]; 10 g a.i./10a)	further results
N#Cc1cnn(-c2nn3c(c2Cl)CCCC3)c1NC(=O)CCCCl [Control agent 1.37, reference compound]	2 (2: 20% to less than 30%)	2 (2: 20% to less than 30%)																			
CCCC(=O)Nc1c(C#N)cnn1-c1nn2c(c1Cl)CCCC2 [Control agent 4.188, reference compound]	2 (2: 20% to less than 30%)	2 (2: 20% to less than 30%)	4 (4: 40% to less than 50%)	5 (5: 50% to less than 60%)	3 (3: 30% to less than 40%)	5 (5: 50% to less than 60%)	1 (1: 10% to less than 20%)	2 (2: 20% to less than 30%)	4 (4: 40% to less than 50%)	0 (0 (exponent): 0% to less than 10% (growth inhibition rate))	0 (0 (exponent): 0% to less than 10% (growth inhibition rate))	1 (1: 10% to less than 20%)	2 (2: 20% to less than 30%)	3 (3: 30% to less than 40%)	3 (3: 30% to less than 40%)	3 (3: 30% to less than 40%)	4 (4: 40% to less than 50%)	4 (4: 40% to less than 50%)	2 (2: 20% to less than 30%)	3 (3: 30% to less than 40%)	herbicidal efficacy, Digitaria ciliaris (Digitaria ciliaris [7]; 5 g a.i./10a): 0 (0 (exponent): 0% to less than 10% (growth inhibition rate)); herbicidal efficacy, Digitaria ciliaris (Digitaria ciliaris [7]; 10 g a.i./10a): 1 (1: 10% to less than 20%)
CCCCC(=O)Nc1c(C#N)cnn1-c1nn2c(c1Cl)CCCC2 [Control agent 4.191, reference compound]	1 (1: 10% to less than 20%)	1 (1: 10% to less than 20%)	4 (4: 40% to less than 50%)	5 (5: 50% to less than 60%)	3 (3: 30% to less than 40%)	2 (2: 20% to less than 30%)	0 (0 (exponent): 0% to less than 10% (growth inhibition rate))	0 (0 (exponent): 0% to less than 10% (growth inhibition rate))	3 (3: 30% to less than 40%)	0 (0 (exponent): 0% to less than 10% (growth inhibition rate))	0 (0 (exponent): 0% to less than 10% (growth inhibition rate))	1 (1: 10% to less than 20%)	2 (2: 20% to less than 30%)	2 (2: 20% to less than 30%)	2 (2: 20% to less than 30%)	2 (2: 20% to less than 30%)	2 (2: 20% to less than 30%)	3 (3: 30% to less than 40%)	3 (3: 30% to less than 40%)	3 (3: 30% to less than 40%)	herbicidal efficacy, Digitaria ciliaris (Digitaria ciliaris [7]; 5 g a.i./10a): 0 (0 (exponent): 0% to less than 10% (growth inhibition rate)); herbicidal efficacy, Digitaria ciliaris (Digitaria ciliaris [7]; 10 g a.i./10a): 0 (0 (exponent): 0% to less than 10% (growth inhibition rate))

From patent US10258042B2, “Substituted pyrazolylpyrazole derivative and use of same as herbicide” (KYOYU AGRI CO., LTD., priority 2015, dated 2019)
